Experimental data from patent publication EP2951180B1, “2,6,7,8 SUBSTITUTED PURINES AS HDM2 INHIBITORS” (Merck Sharp & Dohme Corp., priority 2013, dated 2014).

What follows are compounds tested against T1, HDM2 (Homo sapiens, UniProt Q00987) (assay: HDM2 FRET assay (inhibition of binding of FITC labeled p53-pocket peptide to HDM2)). Conditions: Table 19; read-out: FRET IC50.
T1 construct: Thioredoxin (N); made in house; host or cells: E. coli strain BL21(DE3)Rosetta
Procedure, shortened: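 TR-FRET with 0.5 nM His-tagged recombinant HDM2, 3 nM FITC-labelled p53 peptide and 0.25 nM Tb-anti-His antibody in PBS, 0.01% BSA, 0.01% Tween-20, 0.1% DMSO. IC50 from em520/em495 ratio over 10-point dilutions, 4-parameter logistic fit.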

T1 sequence (Q00987 17-125): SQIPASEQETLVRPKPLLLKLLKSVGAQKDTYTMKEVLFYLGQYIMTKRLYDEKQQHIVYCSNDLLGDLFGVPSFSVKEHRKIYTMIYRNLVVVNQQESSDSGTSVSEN

Q: For `C[C@H]1CC[C@H](Cn2c(Sc3ccccc3)nc3nc(-c4n[nH]c(=O)o4)nc(-c4cncc(Cl)c4)c32)CC1` [Example 19.6, 5-[6-(5-chloropyridin-3-yl)-7-[(trans-4-methylcyclohexyl)methyl]-8-(phenylsulfanyl)-7H-purin-2-yl]-1,3,4-oxadiazol-2(3H)-one], which IC50 is on record?
A: 3.14 nM

Same assay, conditions: Table 20; read-out: FRET IC50

Q: How did the IC50 turn out when `C[C@@H](Nc1nc(C(=O)O)nc2nc(C3(c4ccccc4)CCC3)n(C[C@H]3CC[C@H](C)CC3)c12)C1CCC1` [Example 20.1, 6-{[(1R)-1-cyclobutylethyl]amino}-7-[(trans-4-methylcyclohexyl)methyl]-8-(1-phenylcyclobutyl)-7H-purine-2-carboxylic acid] was run?
A: 1.46 nM

Q: Which IC50 does the source give for `C[C@@H](Nc1nc(C(=O)O)nc2nc(C(C)(C)c3ccccc3)n(C[C@H]3CC[C@H](C)CC3)c12)C1CCC1` [Example 20.2, 6-{[(1R)-1-cyclobutylethyl]amino}-7-[(trans-4-methylcyclohexyl)methyl]-8-(1-methyl-1-phenylethyl)-7H-purine-2-carboxylic acid] here?
A: 3.45 nM

Q: Which IC50 does the source give for `C[C@@H](Nc1nc(C(=O)O)nc2nc(C3(c4ccccc4)CC3)n(Cc3ccc(C(F)(F)F)cc3)c12)C1CCC1` [Example 20.3, 6-{[(1R)-1-cyclobutylethyl]amino}-8-(1-phenylcyclopropyl)-7-[4-(trifluoromethyl)benzyl]-7H-purine-2-carboxylic acid] here?
A: 8.57 nM

Q: `C[C@@H](Nc1nc(C(=O)O)nc2nc(C3(c4ccccc4)CC3)n(C[C@H]3CC[C@H](C)CC3)c12)C1CCC1` [Example 20.4, 6-{[(1R)-1-cyclobutylethyl]amino}-7-[(trans-4-methylcyclohexyl)methyl]-8-(1-phenylcyclopropyl)-7H-purine-2-carboxylic acid] was tested. Which IC50 did it give?
A: 2.58 nM

Q: `C[C@@H](Nc1nc(-c2noc(=O)[nH]2)nc2nc(C3(c4ccccc4)CC3)n(C[C@H]3CC[C@H](C)CC3)c12)C1CCC1` [Example 20.5, 3-[6-{[(1R)-1-cyclobutylethyl]amino}-7-[(trans-4-methylcyclohexyl)methyl]-8-(1-phenylcyclopropyl)-7H-purin-2-yl]-1,2,4-oxadiazol-5(4H)-one] was tested. Which IC50 did it give?
A: 4.98 nM

Q: How did the IC50 turn out when `C[C@@H](Nc1nc(C(=O)O)nc2nc(CC(C)(C)C)n(C[C@H]3CC[C@H](C)CC3)c12)C1CCC1` [Example 20.6, 6-{[(1R)-1-cyclobutylethyl]amino}-8-(2,2-dimethylpropyl)-7-[(trans-4-methylcyclohexyl)methyl]-7H-purine-2-carboxylic acid] was run?
A: 13.9 nM

Q: With `C[C@@H](Nc1nc(-c2noc(=O)[nH]2)nc2nc(CC(C)(C)C)n(C[C@H]3CC[C@H](C)CC3)c12)C1CCC1` [Example 20.7, 3-(6-{[(1R)-1-cyclobutylethyl]amino}-8-(2,2-dimethylpropyl)-7-[(trans-4-methylcyclohexyl)methyl]-7H-purin-2-yl)-1,2,4-oxadiazol-5(4H)-one] as the compound, how does the IC50 read?
A: 20.9 nM

Q: Which IC50 does the source give for `C[C@@H](Nc1nc(-c2noc(=O)[nH]2)nc2nc(C3(c4ccccc4)CCC3)n(C[C@H]3CC[C@H](C)CC3)c12)C1CCC1` [Example 20.8, 3-[6-{[(1R)-1-cyclobutylethyl]amino}-7-[(trans-4-methylcyclohexyl)methyl]-8-(1-phenylcyclobutyl)-7H-purin-2-yl]-1,2,4-oxadiazol-5(4H)-one] here?
A: 5.96 nM

Q: How did the IC50 turn out when `C[C@@H](Nc1nc(-c2n[nH]c(=O)n2C)nc2nc(C3(c4ccccc4)CCC3)n(C[C@H]3CC[C@H](C)CC3)c12)C1CCC1` [Example 20.9, 5-[6-{[(1R)-1-cyclobutylethyl]amino}-7-[(trans-4-methylcyclohexyl)methyl]-8-(1-phenylcyclobutyl)-7H-purin-2-yl]-4-methyl-2,4-dihydro-3H-1,2,4-triazol-3-one] was run?
A: 84.4 nM

Q: Which IC50 does the source give for `C[C@@H](Nc1nc(-c2n[nH]c(=O)o2)nc2nc(C3(c4ccccc4)CCC3)n(C[C@H]3CC[C@H](C)CC3)c12)C1CCC1` [Example 20.10, 5-[6-{[(1R)-1-cyclobutylethyl]amino}-7-[(trans-4-methylcyclohexyl)methyl]-8-(1-phenylcyclobutyl)-7H-purin-2-yl]-1,3,4-oxadiazol-2(3H)-one] here?
A: 28.9 nM

Q: Which IC50 does the source give for `C[C@H]1CC[C@H](Cn2c(C3(c4ccccc4)CCC3)nc3nc(-c4noc(=O)[nH]4)nc(-c4cncc(Cl)c4)c32)CC1` [Example 20.11, 3-[6-(5-chloropyridin-3-yl)-7-[(trans-4-methylcyclohexyl)methyl]-8-(1-phenylcyclobutyl)-7H-purin-2-yl]-1,2,4-oxadiazol-5(4H)-one] here?
A: 3.39 nM

Q: For `C[C@H]1CC[C@H](Cn2c(C3(c4ccccc4)CCC3)nc3nc(-c4n[nH]c(=O)o4)nc(-c4cncc(Cl)c4)c32)CC1` [Example 20.12, 5-[6-(5-chloropyridin-3-yl)-7-[(trans-4-methylcyclohexyl)methyl]-8-(1-phenylcyclobutyl)-7H-purin-2-yl]-1,3,4-oxadiazol-2(3H)-one], which IC50 is on record?
A: 9.59 nM

Q: With `C[C@H]1CC[C@H](Cn2c(C3(c4ccccc4)CCC3)nc3nc(-c4n[nH]c(=O)o4)nc(-c4cc(Cl)c[n+]([O-])c4)c32)CC1` [Example 20.13, 5-[6-(5-chloro-1-oxidopyridin-3-yl)-7-[(trans-4-methylcyclohexyl)methyl]-8-(1-phenylcyclobutyl)-7H-purin-2-yl]-1,3,4-oxadiazol-2(3H)-one] as the compound, how does the IC50 read?
A: 22.8 nM

Q: `COc1ncc(Cl)cc1-c1nc(-c2noc(=O)[nH]2)nc2nc(C3(c4ccccc4)CCC3)n(C[C@H]3CC[C@H](C)CC3)c12` [Example 20.14, 3-[6-(5-chloro-2-methoxypyridin-3-yl)-7-[(trans-4-methylcyclohexyl)methyl]-8-(1-phenylcyclobutyl)-7H-purin-2-yl]-1,2,4-oxadiazol-5(4H)-one] was tested. Which IC50 did it give?
A: 6.11 nM

Same assay, conditions: Table 21; read-out: FRET IC50

Q: For `C[C@@H](Nc1nc(C(=O)O)nc2nc(C3=C(c4ccccc4)CCCC3)n(Cc3ccc(C(F)(F)F)cc3)c12)C1CCC1` [Example 21.3, 6-{[(1R)-1-cyclobutylethyl]amino}-8-(2-phenylcyclohex-1-en-1-yl)-7-[4-(trifluoromethyl)benzyl]-7H-purine-2-carboxylic acid], which IC50 is on record?
A: 5.82 nM

Q: `C[C@@H](Nc1nc(C(=O)O)nc2nc(C3=C(c4ccccc4)CCC3)n(Cc3ccc(C(F)(F)F)cc3)c12)C1CCC1` [Example 21.4, 6-{[(1R)-1-cyclobutylethyl]amino}-8-(2-phenylcyclopent-1-en-1-yl)-7-[4-(trifluoromethyl)benzyl]-7H-purine-2-carboxylic acid] was tested. Which IC50 did it give?
A: 6.99 nM

Q: How did the IC50 turn out when `Cc1nc2nc(C(=O)O)nc(N[C@H](C)C3CCC3)c2n1C[C@H]1CC[C@H](C)CC1` [Example 21.9, 6-{[(1R)-1-cyclobutylethyl]amino}-8-methyl-7-[(trans-4-methylcyclohexyl)methyl]-7H-purine-2-carboxylic acid] was run?
A: 101 nM

Q: How did the IC50 turn out when `C[C@@H](Nc1nc(C(=O)O)nc2nc(C3CCCC(=O)C3c3ccccc3)n(Cc3ccc(C(F)(F)F)cc3)c12)C1CCC1` (stereo partly drawn) [Example 21.11, 6-{[(1R)-1-cyclobutylethyl]amino}-8-(3-oxo-2-phenylcyclohexyl)-7-[4-(trifluoromethyl)benzyl]-7H-purine-2-carboxylic acid] was run?
A: 8.72 nM

Q: For `C[C@@H](Nc1nc(C(=O)O)nc2nc(C3CCCCC3c3ccccc3)n(Cc3ccc(C(F)(F)F)cc3)c12)C1CCC1` (stereo partly drawn) [Example 21.12, 6-{[(1R)-1-cyclobutylethyl]amino}-8-(2-phenylcyclohexyl)-7-[4-(trifluoromethyl)benzyl]-7H-purine-2-carboxylic acid], which IC50 is on record?
A: 4.57 nM
